Literature values in patent US6420614B1, “Process for obtaining 3′-epilutein” (Industrial Organica, S.A. DE C.V., priority 2000, dated 2002).

test system: egg yolk; details: relative potency of zeaxanthin stereoisomers; (3R,3′R)-zeaxanthin = 100%

| SMILES | potency in pigmenting of egg yolk [%] |
| --- | --- |
| CC1=C(/C=C/C(C)=C/C=C/C(C)=C/C=C/C=C(C)/C=C/C=C(C)/C=C/C2=C(C)C[C@H](O)CC2(C)C)C(C)(C)C[C@@H](O)C1 (single isomer, unassigned) [(3S, 3′S)-zeaxanthin (enantiomer)] | 86 |
| CC1=C(/C=C/C(C)=C/C=C/C(C)=C/C=C/C=C(C)/C=C/C=C(C)/C=C/C2=C(C)C[C@H](O)CC2(C)C)C(C)(C)C[C@H](O)C1 [(3R, 3′S)-zeaxanthin (meso, II), (3R,3′S)-zeaxanthin] | 37 |
| CC1=C(/C=C/C(C)=C/C=C/C(C)=C/C=C/C=C(C)/C=C/C=C(C)/C=C/C2=C(C)C[C@@H](O)CC2(C)C)C(C)(C)C[C@H](O)C1 [(3RS, 3′SR)-zeaxanthin (racemic), (3RS, 3′SR)-zeaxanthin] | 92 |
| CC1=C(/C=C/C(C)=C/C=C/C(C)=C/C=C/C=C(C)/C=C/C=C(C)/C=C/C2=C(C)C[C@@H](O)CC2(C)C)C(C)(C)C[C@H](O)C1 [(3R, 3′R)-zeaxanthin (III), (3R,3′R)-zeaxanthin] | 100 |
